Assay results as given in patent US8445510B2, “Fused bicyclic kinase inhibitors” (OSI Pharmaceuticals, LLC, priority 2011, dated 2013).

Columns and labels:
RON = target: T1, RON (Homo sapiens, UniProt Q04912); assay: sfRON cell mechanistic assay (HeLa), phosphorylated RON ELISA; type: cell-based; conditions: HeLa cells transfected with sfRON; inhibition of phosphorylated RON; four hours incubation; at least duplicate experiments; read-out: sfRON mech IC50
T1 sequence (Q04912 913-1400): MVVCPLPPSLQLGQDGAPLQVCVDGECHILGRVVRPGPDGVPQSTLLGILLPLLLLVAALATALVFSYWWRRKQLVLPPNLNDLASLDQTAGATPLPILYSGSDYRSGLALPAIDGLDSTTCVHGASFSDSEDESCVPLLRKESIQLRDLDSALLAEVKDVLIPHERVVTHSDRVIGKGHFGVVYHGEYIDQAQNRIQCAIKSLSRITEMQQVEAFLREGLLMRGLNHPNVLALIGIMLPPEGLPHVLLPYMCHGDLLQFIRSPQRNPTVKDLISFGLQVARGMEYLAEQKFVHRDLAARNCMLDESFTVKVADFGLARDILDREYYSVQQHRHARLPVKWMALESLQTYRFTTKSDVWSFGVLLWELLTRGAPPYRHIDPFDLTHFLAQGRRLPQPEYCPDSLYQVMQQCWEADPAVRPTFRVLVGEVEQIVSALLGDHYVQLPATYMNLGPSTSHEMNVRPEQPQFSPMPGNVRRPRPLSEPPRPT
In short: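 HeLa cells transiently transfected with sfRON plasmid, then exposed 4 h at 37 °C to a 6-point compound series (typically 10 μM to 3 nM, 0.5% DMSO). Phospho-RON (pY1238/1239) in lysates measured by sandwich ELISA with luminescence. IC50 from 4-parameter fit of percent-of-DMSO-control data, at least duplicate runs.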

MKN45 cells = assay: MKN45 cell proliferation assay (CellTiter-Glo); type: cell-based; conditions: Homo sapiens, MKN-45, 72 h; MKN45 cell line; 3 days incubation; at least duplicate experiments; read-out: Prolif. IC50

SMILES	IC50 (RON) [nM]	IC50 (MKN45 cells) [nM]
Cc1nn(C[C@@H](O)CO)c(C)c1-c1cnc2[nH]cc([C@H](C)c3c(OC(F)F)ccc(F)c3Cl)c2c1 [Example 69, (2R)-3-[4-(3-{(1S)-1-[2-Chloro-6-(difluoromethoxy)-3-fluorophenyl]ethyl}-1H-pyrrolo[2,3-b]pyridin-5-yl)-3,5-dimethyl-1H-pyrazol-1-yl]propane-1,2-diol]	≤ 200	≤ 50
Cc1c(-c2cnc3[nH]cc([C@H](C)c4c(OC(F)F)ccc(F)c4Cl)c3c2)cnn1C[C@H](O)CO [Example 70, (2S)-3-[4-(3-{(1S)-1-[2-Chloro-6-(difluoromethoxy)-3-fluorophenyl]ethyl}-1H-pyrrolo[2,3-b]pyridin-5-yl)-5-methyl-1H-pyrazol-1-yl]propane-1,2-diol]	≤ 200	≤ 50
Cc1nn(C[C@H](O)CO)cc1-c1cnc2[nH]cc([C@H](C)c3c(OC(F)F)ccc(F)c3Cl)c2c1 [Example 71, (2S)-3-[4-(3-{(1S)-1-[2-Chloro-6-(difluoromethoxy)-3-fluorophenyl]ethyl}-1H-pyrrolo[2,3-b]pyridin-5-yl)-3-methyl-1H-pyrazol-1-yl]propane-1,2-diol]	≤ 200	≤ 50
CCc1c(-c2cnc3[nH]cc([C@H](C)c4c(OC(F)F)ccc(F)c4Cl)c3c2)cnn1CC(C)(C)O [Example 72, 1-[4-(3-{(1S)-1-[2-Chloro-6-(difluoromethoxy)-3-fluorophenyl]ethyl}-1H-pyrrolo[2,3-b]pyridin-5-yl)-5-ethyl-1H-pyrazol-1-yl]-2-methylpropan-2-ol]	200 to 1000	50 to 200
CCc1nn(CC(C)(C)O)cc1-c1cnc2[nH]cc([C@H](C)c3c(OC(F)F)ccc(F)c3Cl)c2c1 [Example 73, 1-[4-(3-{(1S)-1-[2-Chloro-6-(difluoromethoxy)-3-fluorophenyl]ethyl}-1H-pyrrolo[2,3-b]pyridin-5-yl)-3-ethyl-1H-pyrazol-1-yl]-2-methylpropan-2-ol]	200 to 1000	≤ 50
Cc1c(-c2cnc3[nH]cc([C@H](C)c4c(OC(F)F)ccc(F)c4Cl)c3c2)cnn1[C@H]1CC[C@H](O)CC1 [Example 74, trans-4-[4-(3-{(1S)-1-[2-Chloro-6-(difluoromethoxy)-3-fluorophenyl]ethyl}-1H-pyrrolo[2,3-b]pyridin-5-yl)-5-methyl-1H-pyrazol-1-yl]cyclohexanol]	≤ 200	≤ 50
Cc1c(-c2cnc3[nH]cc([C@H](C)c4c(OC(F)F)ccc(F)c4Cl)c3c2)cnn1[C@@H]1C[C@@H](O)[C@@H](O)C1 [Example 75, (1R,2S,4S)-4-[4-(3-{(1S)-1-[2-Chloro-6-(difluoromethoxy)-3-fluoro-phenyl]ethyl}-1H-pyrrolo[2,3-b]pyridin-5-yl)-5-methyl-1H-pyrazol-1-yl]cyclopentane-1,2-diol]	≤ 200	≤ 50
Cc1c(-c2cnc3[nH]cc([C@H](C)c4c(OC(F)F)ccc(F)c4Cl)c3c2)cnn1[C@H]1CC[C@H](C(N)=O)CC1 [Example 76, trans-4-[4-(3-{(1S)-1-[2-Chloro-6-(difluoromethoxy)-3-fluorophenyl]ethyl}-1H-pyrrolo[2,3-b]pyridin-5-yl)-5-methyl-1H-pyrazol-1-yl]cyclohexanecarboxamide]	≤ 200	≤ 50
CCc1nn([C@H]2CC[C@H](O)CC2)cc1-c1cnc2[nH]cc([C@H](C)c3c(OC(F)F)ccc(F)c3Cl)c2c1 [Example 77, trans-4-[4-(3-{(1S)-1-[2-Chloro-6-(difluoromethoxy)-3-fluorophenyl]ethyl}-1H-pyrrolo[2,3-b]pyridin-5-yl)-3-ethyl-1H-pyrazol-1-yl]cyclohexanol]	≤ 200	≤ 50
CCc1c(-c2cnc3[nH]cc([C@H](C)c4c(OC(F)F)ccc(F)c4Cl)c3c2)cnn1[C@H]1CC[C@H](O)CC1 [Example 78, trans-4-[4-(3-{(1S)-1-[2-Chloro-6-(difluoromethoxy)-3-fluorophenyl]ethyl}-1H-pyrrolo[2,3-b]pyridin-5-yl)-5-ethyl-1H-pyrazol-1-yl]cyclohexanol]	200 to 1000	≤ 50
Cc1c(-c2cnc3[nH]cc([C@H](C)c4c(OC(F)F)ccc(F)c4Cl)c3c2)cnn1[C@H]1C[C@@](C)(O)C1 [Example 79, cis-3-[4-(3-{(1S)-1-[2-Chloro-6-(difluoromethoxy)-3-fluorophenyl]ethyl}-1H-pyrrolo[2,3-b]pyridin-5-yl)-5-methyl-1H-pyrazol-1-yl]-1-methylcyclobutanol]	200 to 1000	≤ 50
Cc1c(-c2cnc3[nH]cc([C@H](C)c4c(OC(F)F)ccc(F)c4Cl)c3c2)cnn1[C@H]1C[C@@H](O)C1 [Example 81, cis-3-[4-(3-{(1S)-1-[2-Chloro-6-(difluoromethoxy)-3-fluorophenyl]ethyl}-1H-pyrrolo[2,3-b]pyridin-5-yl)-5-methyl-1H-pyrazol-1-yl]cyclobutanol]	200 to 1000	≤ 50

The next lines start with the values.

IC50 (RON) [nM]	IC50 (MKN45 cells) [nM]	SMILES
200 to 1000	≤ 50	C[C@H](c1c(OC(F)F)ccc(F)c1Cl)c1c[nH]c2ncc(-c3cnn([C@H]4CC[C@H](O)CC4)c3Cl)cc12 [Example 82, trans-4-[5-Chloro-4-(3-{(1S)-1-[2-chloro-6-(difluoromethoxy)-3-fluorophenyl]ethyl}-1H-pyrrolo[2,3-b]pyridin-5-yl)-1H-pyrazol-1-yl]cyclohexanol]
200 to 1000	≤ 50	C[C@H](c1c(OC(F)F)ccc(F)c1Cl)c1c[nH]c2ncc(-c3cnn([C@H]4CC[C@H](O)CC4)c3CO)cc12 [Example 83, trans-4-[4-(3-{(1S)-1-[2-Chloro-6-(difluoromethoxy)-3-fluorophenyl]ethyl}-1H-pyrrolo[2,3-b]pyridin-5-yl)-5-(hydroxymethyl)-1H-pyrazol-1-yl]cyclohexanol]
200 to 1000	≤ 50	C[C@H](c1c(OC(F)F)ccc(F)c1Cl)c1c[nH]c2ncc(-c3cnn([C@H]4CC[C@H](O)CC4)c3F)cc12 [Example 84, trans-4-[4-(3-{(1S)-1-[2-Chloro-6-(difluoromethoxy)-3-fluorophenyl]ethyl}-1H-pyrrolo[2,3-b]pyridin-5-yl)-5-fluoro-1H-pyrazol-1-yl]cyclohexanol]
200 to 1000	≤ 50	[2H]C([2H])([2H])c1c(-c2cnc3[nH]cc([C@H](C)c4c(OC(F)F)ccc(F)c4Cl)c3c2)cnn1[C@H]1CC[C@H](O)CC1 [Example 85, trans-4-[4-(3-{(1S)-1-[2-Chloro-6-(difluoromethoxy)-3-fluorophenyl]ethyl}-1H-pyrrolo[2,3-b]pyridin-5-yl)-5-(^2H3)methyl-1H-pyrazol-1-yl]cyclohexanol]
≤ 200	≤ 50	Cc1c(-c2cnc3[nH]cc([C@H](C)c4c(OC(F)F)ccc(F)c4Cl)c3c2)cnn1C1CCNCC1 [Example 96, 3-{(1S)-1-[2-Chloro-6-(difluoromethoxy)-3-fluorophenyl]ethyl}-5-[5-methyl-1-(piperidin-4-yl)-1H-pyrazol-4-yl]-1H-pyrrolo[2,3-b]pyridine]
≤ 200	≤ 50	CC(=O)N1CCC(n2ncc(-c3cnc4[nH]cc([C@H](C)c5c(OC(F)F)ccc(F)c5Cl)c4c3)c2C)CC1 [Example 97, 1-{4-[4-(3-{(1S)-1-[2-Chloro-6-(difluoromethoxy)-3-fluorophenyl]ethyl}-1H-pyrrolo[2,3-b]pyridin-5-yl)-5-methyl-1H-pyrazol-1-yl]piperidin-1-yl}ethanone]
